This passage reports T/C results from PubChem BioAssay AID330 (DTP/NCI, 2004).

Several values for one entry are separate records, joined by “and”; a condition that tells them apart may be missing. Identical values can stand only once. Toxic doses and inconclusive results are not listed.

This assay has as its system P388 leukemia ip, CD2F1 mice, survival T/C. Description: NCI In Vivo Anticancer Drug Screen. Data for tumor model P388 Leukemia (intraperitoneal) in CD2F1 (CDF1) mice. Conditions: endpoint: median survival time, higher = longer survival. Put shortly: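 Mice carrying the transplanted tumor received test compound or vehicle. Survival was recorded in each group, and the value is the treated-group measurement divided by that of the vehicle-treated control group.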

Where [1] appears, read: dose: 100.0 mg/kg/injection, schedule: Q01DX009 (ip), vehicle: saline with Tween-80.
The mark [2] stands for this setting: dose: 200.0 mg/kg/injection, schedule: Q01DX009 (ip), vehicle: saline with Tween-80.
The mark [3] stands for this setting: dose: 60.0 mg/kg/injection, schedule: Q01DX005 (ip), vehicle: saline with Tween-80.
Where [4] appears, read: dose: 120.0 mg/kg/injection, schedule: Q01DX005 (ip), vehicle: saline with Tween-80.
The mark [5] stands for this setting: dose: 240.0 mg/kg/injection, schedule: Q01DX005 (ip), vehicle: saline with Tween-80.

In the case of `CC[C@@]1(O)C[C@H](OC2CC(N(C)C)C(OC3CC(O)C(OC4CCC(=O)C(C)O4)C(C)O3)C(C)O2)c2c(cc3c(c2O)C(=O)c2c(O)cccc2C3=O)[C@H]1C(=O)OC` (stereo not given in full), the T/C (dose: 0.5 mg/kg/injection, schedule: Q03HX008 (ip), vehicle: saline) is 120 % of control; the T/C (dose: 1.0 mg/kg/injection, schedule: Q01DX005 (iv), vehicle: saline) was 108 % of control; the T/C (dose: 1.0 mg/kg/injection, schedule: Q01DX009 (oral), vehicle: saline) is 98 % of control; the T/C (dose: 1.0 mg/kg/injection, schedule: Q01DX009 (sc), vehicle: saline) was 115 % of control; the T/C (dose: 1.0 mg/kg/injection, schedule: Q03HX024 (ip), vehicle: saline) was 167 % of control; the T/C (dose: 1.0 mg/kg/injection, schedule: Q04DX003 (ip), vehicle: saline) was 103 % of control. Further, the T/C by setting is: (dose: 1.94 mg/kg/injection, schedule: Q04DX003 (ip), vehicle: clinical formulation) 96 % of control; (dose: 2.0 mg/kg/injection, schedule: Q01DX001 (iv), vehicle: saline) 105 % of control; (dose: 2.0 mg/kg/injection, schedule: Q01DX005 (ip), vehicle: saline) 167 % of control; (dose: 2.0 mg/kg/injection, schedule: Q01DX005 (iv), vehicle: saline) 120 % of control; (dose: 2.0 mg/kg/injection, schedule: Q01DX009 (ip), vehicle: saline) 168 % of control; (dose: 2.0 mg/kg/injection, schedule: Q01DX009 (oral), vehicle: saline) 115 % of control. Moreover, the T/C runs as follows: (dose: 2.0 mg/kg/injection, schedule: Q04DX003 (ip), vehicle: clinical formulation) 117 % of control; (dose: 2.0 mg/kg/injection, schedule: Q04DX003 (ip), vehicle: saline) 116 % of control and 120 % of control; (dose: 2.5 mg/kg/injection, schedule: Q01DX009 (ip), vehicle: saline) 180 % of control; (dose: 2.59 mg/kg/injection, schedule: Q04DX002 (ip), vehicle: saline) 114 % of control; (dose: 4.0 mg/kg/injection, schedule: Q01DX001 (iv), vehicle: saline) 116 % of control; (dose: 4.0 mg/kg/injection, schedule: Q01DX005 (ip), vehicle: saline) 189 % of control. Besides, the T/C is, setting by setting: (dose: 4.0 mg/kg/injection, schedule: Q01DX005 (iv), vehicle: saline) 162 % of control; (dose: 4.0 mg/kg/injection, schedule: Q01DX009 (ip), vehicle: saline) 99 % of control; (dose: 4.0 mg/kg/injection, schedule: Q01DX009 (sc), vehicle: saline) 153 % of control; (dose: 4.0 mg/kg/injection, schedule: Q03HX008 (ip), vehicle: saline) 173 % of control; (dose: 4.0 mg/kg/injection, schedule: Q04DX003 (ip), vehicle: Klucel (hydroxypropylcellulose) (HPC)) 122 % of control; (dose: 4.32 mg/kg/injection, schedule: Q04DX002 (ip), vehicle: saline) 151 % of control. Moreover, the T/C by setting is: (dose: 5.4 mg/kg/injection, schedule: Q04DX003 (ip), vehicle: clinical formulation) 113 % of control; (dose: 5.4 mg/kg/injection, schedule: Q04DX003 (ip), vehicle: saline) 159 % of control; (dose: 6.7 mg/kg/injection, schedule: Q04DX003 (ip), vehicle: water) 154 % of control; (dose: 7.2 mg/kg/injection, schedule: Q04DX002 (ip), vehicle: saline) 161 % of control; (dose: 7.2 mg/kg/injection, schedule: Q04DX003 (ip), vehicle: saline) 175 % of control; (dose: 8.0 mg/kg/injection, schedule: Q01DX001 (oral), vehicle: saline) 110 % of control. Moreover, the T/C is, setting by setting: (dose: 8.0 mg/kg/injection, schedule: Q01DX009 (oral), vehicle: saline) 153 % of control; (dose: 8.0 mg/kg/injection, schedule: Q01DX009 (sc), vehicle: saline) 95 % of control; (dose: 8.0 mg/kg/injection, schedule: Q04DX003 (ip), vehicle: clinical formulation) 183 % of control; (dose: 8.0 mg/kg/injection, schedule: Q04DX003 (ip), vehicle: saline) 172 % of control and 176 % of control; (dose: 9.0 mg/kg/injection, schedule: Q04DX003 (ip), vehicle: clinical formulation) 114 % of control; (dose: 9.0 mg/kg/injection, schedule: Q04DX003 (ip), vehicle: saline) 198 % of control. The T/C (dose: 10.0 mg/kg/injection, schedule: Q04DX003 (ip), vehicle: water) was 170 % of control; the T/C (dose: 12.0 mg/kg/injection, schedule: Q04DX002 (ip), vehicle: saline) is 166 % of control; the T/C (dose: 15.0 mg/kg/injection, schedule: Q04DX003 (ip), vehicle: saline) is 95 % of control; the T/C (dose: 15.0 mg/kg/injection, schedule: Q04DX003 (ip), vehicle: water) was 187 % of control; the T/C (dose: 16.0 mg/kg/injection, schedule: Q01DX001 (ip), vehicle: saline) is 153 % of control; the T/C (dose: 16.0 mg/kg/injection, schedule: Q01DX001 (oral), vehicle: saline) is 116 % of control. For the same compound, the T/C (dose: 16.0 mg/kg/injection, schedule: Q04DX003 (ip), vehicle: Klucel (hydroxypropylcellulose) (HPC)) was 154 % of control; the T/C (dose: 16.0 mg/kg/injection, schedule: Q04DX003 (ip), vehicle: saline) is 117 % of control; the T/C (dose: 32.0 mg/kg/injection, schedule: Q01DX001 (ip), vehicle: saline) is 180 % of control; the T/C (dose: 32.0 mg/kg/injection, schedule: Q01DX001 (iv), vehicle: saline) is 159 % of control.
Turning to `CCCSCCCCSCCC`, the T/C under setting [1] was 100 % of control and the T/C under setting [2] was 108 % of control.
Regarding `Cn1c2nc(=O)n(-c3ccccc3)c(=O)c-2nc2c1CCCC2`, the T/C (dose: 3.13 mg/kg/injection, schedule: Q01DX009 (ip), vehicle: saline with Tween-80) was 100 % of control; the T/C (dose: 6.25 mg/kg/injection, schedule: Q01DX009 (ip), vehicle: saline with Tween-80) was 106 % of control and 109 % of control; the T/C (dose: 12.5 mg/kg/injection, schedule: Q01DX009 (ip), vehicle: saline with Tween-80) was 106 % of control and 116 % of control; the T/C (dose: 50.0 mg/kg/injection, schedule: Q01DX009 (ip), vehicle: saline with Tween-80) was 110 % of control; the T/C under setting [1] was 115 % of control; the T/C under setting [2] is 116 % of control.
Turning to `NCCCO[C@H]1CO[C@H]2[C@@H]1OC[C@H]2OCCCN`, the T/C was 100 % of control (dose: 50.0 mg/kg/injection, schedule: Q01DX005 (ip), vehicle: saline) and 102 % of control (dose: 100.0 mg/kg/injection, schedule: Q01DX005 (ip), vehicle: saline).
Turning to `CN(C)CN1CSC(=S)N(CN(C)C)C1`, the T/C (dose: 50.0 mg/kg/injection, schedule: Q01DX005 (ip), vehicle: distilled water + alcohol) was 103 % of control; the T/C (dose: 100.0 mg/kg/injection, schedule: Q01DX005 (ip), vehicle: distilled water + alcohol) is 116 % of control; the T/C (dose: 200.0 mg/kg/injection, schedule: Q01DX005 (ip), vehicle: distilled water + alcohol) is 103 % of control.
Turning to `O=NNc1ccc(Oc2ccccc2)cn1`, the T/C (dose: 6.25 mg/kg/injection, schedule: Q01DX009 (ip), vehicle: saline) is 156 % of control.
`FC(F)(F)c1ccccc1Nc1nnc(-c2ccc(Cl)cc2Cl)o1`: the T/C reads like this: under setting [3], 100 % of control; under setting [4], 96 % of control; under setting [5], 87 % of control.
In the case of `Brc1nc(-[n+]2ccccc2)[n-]c1Br`, the T/C is, setting by setting: (dose: 100.0 mg/kg/injection, schedule: Q04DX003 (ip), vehicle: saline) 101 % of control; (dose: 200.0 mg/kg/injection, schedule: Q04DX003 (ip), vehicle: saline) 99 % of control; (dose: 400.0 mg/kg/injection, schedule: Q04DX003 (ip), vehicle: saline) 100 % of control.
As to `CCOc1ccc(/C=N/Nc2ccc([N+](=O)[O-])cc2)cc1OC`, the T/C (dose: 100.0 mg/kg/injection, schedule: Q04DX003 (ip), vehicle: saline with Tween-80) is 95 % of control; the T/C (dose: 200.0 mg/kg/injection, schedule: Q04DX003 (ip), vehicle: saline with Tween-80) was 90 % of control; the T/C (dose: 400.0 mg/kg/injection, schedule: Q04DX003 (ip), vehicle: saline with Tween-80) is 90 % of control.
For `COc1ccc(Cc2coc3ccccc3c2=O)cc1`, the T/C by setting is: under setting [3], 102 % of control; under setting [4], 92 % of control; under setting [5], 100 % of control.
As for `CCCCCCCC[N+](C)(C)Cc1ccc(Oc2ccc(C[N+](C)(C)CCCCCCCC)cc2)cc1`, the T/C runs as follows: (dose: 6.25 mg/kg/injection, schedule: Q04DX003 (ip), vehicle: saline) 108 % of control; (dose: 12.5 mg/kg/injection, schedule: Q04DX003 (ip), vehicle: saline) 110 % of control; (dose: 25.0 mg/kg/injection, schedule: Q04DX003 (ip), vehicle: saline) 110 % of control.
